According to ChEMBL document CHEMBL1140314, “Adamantyl cannabinoids: a novel class of cannabinergic ligands” (J Med Chem, 2005):

Key:
Cannabinoid receptor 1 = Cannabinoid receptor 1 (Rattus norvegicus, UniProt P20272); test: Inhibition of [3H]CP-55940 binding to cannabinoid receptor 1 of rat brain
Cannabinoid receptor 2 = Cannabinoid receptor 2 (Mus musculus, UniProt P47936); test: Inhibition of [3H]CP-55940 binding to cannabinoid receptor 2 of mouse spleen membranes; type: tissue-based
Rattus norvegicus [1] = test: In vivo cannabinergic activity in rat after 90 min of dose administration (0.03-1.8 mg/kg) using drug discrimination assay; type: functional
Rattus norvegicus [2] = test: In vivo cannabinergic activity in rat after 30 min of dose administration (0.03-1.8 mg/kg) using drug discrimination assay; type: functional; conditions: 0.5 h

Chain of Cannabinoid receptor 2 (P47936 whole entry): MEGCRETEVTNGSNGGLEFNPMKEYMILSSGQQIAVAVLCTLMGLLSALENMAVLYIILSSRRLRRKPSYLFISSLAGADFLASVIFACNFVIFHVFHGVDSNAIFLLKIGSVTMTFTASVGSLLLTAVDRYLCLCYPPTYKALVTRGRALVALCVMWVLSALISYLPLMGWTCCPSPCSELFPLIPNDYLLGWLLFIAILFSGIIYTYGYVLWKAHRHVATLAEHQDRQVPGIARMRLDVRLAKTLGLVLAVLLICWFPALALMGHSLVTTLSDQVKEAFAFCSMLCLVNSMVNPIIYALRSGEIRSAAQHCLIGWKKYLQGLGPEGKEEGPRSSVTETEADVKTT
Chain of Cannabinoid receptor 1 (P20272 whole entry): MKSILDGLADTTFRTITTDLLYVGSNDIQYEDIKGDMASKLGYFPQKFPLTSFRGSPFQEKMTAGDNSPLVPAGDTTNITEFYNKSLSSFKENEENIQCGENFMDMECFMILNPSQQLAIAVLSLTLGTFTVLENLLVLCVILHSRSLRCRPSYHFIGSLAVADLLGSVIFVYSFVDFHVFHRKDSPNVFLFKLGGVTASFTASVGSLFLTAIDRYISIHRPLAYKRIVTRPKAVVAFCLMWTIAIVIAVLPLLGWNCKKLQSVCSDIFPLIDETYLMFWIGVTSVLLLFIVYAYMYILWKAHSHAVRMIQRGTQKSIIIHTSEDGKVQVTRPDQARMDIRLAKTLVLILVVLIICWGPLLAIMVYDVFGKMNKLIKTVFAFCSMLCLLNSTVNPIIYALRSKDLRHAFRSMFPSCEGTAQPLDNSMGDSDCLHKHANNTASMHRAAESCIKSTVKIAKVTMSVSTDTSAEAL

`CC1=CC[C@@H]2[C@@H](C1)c1c(O)cc(C=C3C4CC5CC(C4)CC3C5)cc1OC2(C)C` showed a Ki (Cannabinoid receptor 1) of 48.6 nM and a Ki (Cannabinoid receptor 2) of 8.9 nM.

`CC1=CC[C@@H]2[C@@H](C1)c1c(O)cc(C3C4CC5CC(C4)CC3C5)cc1OC2(C)C` (stereo partly drawn) showed a Ki (Cannabinoid receptor 1) of 34.9 nM and a Ki (Cannabinoid receptor 2) of 14 nM.

Compound `CC1=CC[C@@H]2[C@@H](C1)c1c(O)cc(CC3C4CC5CC(C4)CC3C5)cc1OC2(C)C` (stereo partly drawn) has a Ki (Cannabinoid receptor 1) of 79.7 nM and a Ki (Cannabinoid receptor 2) of 76 nM.

For `CC1=CC[C@@H]2[C@@H](C1)c1c(O)cc(C34CC5CC(CC(C5)C3)C4)cc1OC2(C)C`, the ED50 (Rattus norvegicus [1]) was 0.41 mg/kg, the ED50 (Rattus norvegicus [1]; Rattus norvegicus, 1.5 h, read-out: ED50) was 0.44 mg/kg and the Ki (Cannabinoid receptor 1) was 6.8 nM. For the same compound, the ED50 (Rattus norvegicus [2]) was 0.68 mg/kg and the Ki (Cannabinoid receptor 2) was 52 nM.

`CC1=CC[C@@H]2[C@@H](C1)c1c(O)cc(CC34CC5CC(CC(C5)C3)C4)cc1OC2(C)C` gave a Ki (Cannabinoid receptor 1) of 29.3 nM and a Ki (Cannabinoid receptor 2) of 26.9 nM.
